{"source": "patent US10028917B2", "about": "“Beclomethasone dipropionate compositions in modified-release gastro-resistant microspheres and process for obtaining them” (SOFAR SPA, priority 2010, dated 2018)", "origin": "cited, not measured here", "settings": "relative to hydrocortisone"}
{"smiles": "CCC(=O)OCC(=O)[C@@]1(OC(=O)CC)[C@@H](C)C[C@H]2[C@@H]3CCC4=CC(=O)C=C[C@]4(C)[C@@]3(Cl)[C@@H](O)C[C@@]21C", "note": "[BDP, Beclomethasone dipropionate]", "values": [{"measurement": "times more powerful than hydrocortisone", "value": 500, "unit": "times"}]}
